In ChEMBL document CHEMBL1141223, “Potent Dmt-Tic pharmacophoric delta- and mu-opioid receptor antagonists” (J Med Chem, 2005):

Columns and labels:
[1] = target: Delta-type opioid receptor (Mus musculus) (UniProt P32300); test: Maximal inhibition of muscle contraction in mouse vas deferens at 10000 nM; format: functional, tissue-based; parameters: scale not given: the % may be the effect or the level left; details: Muscle tissue
[2] = target: Opioid receptors; mu & delta (Rattus norvegicus) (UniProt P33533+P33535); test: Selectivity ratio of rat mu opioid receptor over rat delta opioid receptor; format: protein assay
Opioid receptors; mu & delta (Rattus norvegicus), sequence (P33533 whole entry, looked up): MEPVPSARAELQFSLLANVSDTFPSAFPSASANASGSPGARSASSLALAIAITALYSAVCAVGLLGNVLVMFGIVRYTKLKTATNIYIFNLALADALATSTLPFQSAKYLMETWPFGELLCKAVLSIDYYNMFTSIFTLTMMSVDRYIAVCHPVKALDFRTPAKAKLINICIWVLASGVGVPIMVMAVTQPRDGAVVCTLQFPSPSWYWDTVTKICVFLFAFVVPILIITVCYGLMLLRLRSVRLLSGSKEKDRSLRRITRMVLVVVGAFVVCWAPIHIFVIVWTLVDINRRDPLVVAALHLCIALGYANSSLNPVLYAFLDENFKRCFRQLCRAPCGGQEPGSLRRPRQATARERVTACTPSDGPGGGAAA
Opioid receptors; mu & delta (Rattus norvegicus), sequence (P33535 whole entry, looked up): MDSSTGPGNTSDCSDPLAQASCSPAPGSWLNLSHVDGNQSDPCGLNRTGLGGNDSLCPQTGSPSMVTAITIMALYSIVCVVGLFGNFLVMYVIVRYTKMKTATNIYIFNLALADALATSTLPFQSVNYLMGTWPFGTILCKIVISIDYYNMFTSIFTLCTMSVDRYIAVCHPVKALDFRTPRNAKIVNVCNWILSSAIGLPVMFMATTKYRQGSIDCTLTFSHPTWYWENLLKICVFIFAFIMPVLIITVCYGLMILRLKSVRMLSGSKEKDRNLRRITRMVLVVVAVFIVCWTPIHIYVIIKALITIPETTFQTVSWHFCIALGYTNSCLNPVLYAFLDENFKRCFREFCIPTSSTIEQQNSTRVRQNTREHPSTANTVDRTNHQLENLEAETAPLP

[3] = target: T1, Delta-type opioid receptor (Mus musculus, UniProt P32300); test: Agonistic activity at delta opioid receptor in mouse vas deferens; format: functional, tissue-based
T1 sequence (P32300 whole entry): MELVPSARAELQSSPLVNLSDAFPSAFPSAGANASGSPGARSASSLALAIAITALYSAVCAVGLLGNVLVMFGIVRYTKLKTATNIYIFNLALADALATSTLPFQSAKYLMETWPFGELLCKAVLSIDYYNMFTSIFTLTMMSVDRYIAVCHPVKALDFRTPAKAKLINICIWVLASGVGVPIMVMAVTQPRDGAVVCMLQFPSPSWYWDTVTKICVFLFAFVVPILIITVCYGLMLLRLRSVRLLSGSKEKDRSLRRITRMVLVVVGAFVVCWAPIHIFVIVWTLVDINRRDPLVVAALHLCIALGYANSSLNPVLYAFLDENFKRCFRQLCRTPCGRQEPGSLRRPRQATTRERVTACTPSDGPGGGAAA

[4] = target: T1, Delta-type opioid receptor; test: Displacement of deltorphin-II from delta opioid receptor in mouse vas deferens; details: read-out: pA2 (converted)
[5] = target: Mu-type opioid receptor (Cavia porcellus) (UniProt P97266); test: Maximal inhibition of muscle contraction in guinea pig ileum at 10000 nM; format: functional, tissue-based; parameters: scale not given: the % may be the effect or the level left
Mu-type opioid receptor (Cavia porcellus), sequence (P97266 whole entry): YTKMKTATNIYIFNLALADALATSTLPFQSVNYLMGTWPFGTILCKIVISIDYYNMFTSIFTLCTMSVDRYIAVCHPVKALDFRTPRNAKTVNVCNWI

Mu-type opioid receptor [6] = target: Mu-type opioid receptor (Rattus norvegicus, UniProt P33535); test: Displacement of [3H]DAMGO from mu opioid receptor expressed in rat brain synaptosomal membranes; format: cell membranes, Sprague-Dawley, Membrane
Mu-type opioid receptor (Rattus norvegicus, UniProt P33535), sequence (P33535 whole entry): as the sequence (P33535 whole entry, looked up) above

[7] = target: Delta-type opioid receptor (Rattus norvegicus, UniProt P33533); test: Displacement of [3H]deltorphin-II from delta opioid receptor in rat brain synaptosomal membranes; format: cell membranes, Sprague-Dawley, Membrane
Delta-type opioid receptor (Rattus norvegicus, UniProt P33533), sequence (P33533 whole entry): as the sequence (P33533 whole entry, looked up) above

Mu-type opioid receptor [8] = target: T2, Mu-type opioid receptor (Cavia porcellus, UniProt P97266); test: Agonistic activity at mu opioid receptor in myenteric plexus longitudinal muscle of guinea pig ileum; format: functional, tissue-based, Hartley
T2 sequence (P97266 whole entry): as the sequence (P97266 whole entry) above

Mu-type opioid receptor [9] = target: T2, Mu-type opioid receptor; test: Displacement of endomorphin-2 from mu opioid receptor in guinea pig ileum; format: tissue-based, Hartley; details: read-out: pA2 (converted)

Delta-type opioid receptor (Mus musculus), sequence (P32300 whole entry): as the sequence (P32300 whole entry) above

| Compound | Activity [1] | Ratio Ki [2] | IC50 [3] | Kb [4] | Activity [5] | Ki (Mu-type opioid receptor [6]) | Ki [7] | IC50 (Mu-type opioid receptor [8]) | Kb (Mu-type opioid receptor [9]) |
| --- | --- | --- | --- | --- | --- | --- | --- | --- | --- |
| Cc1cc(O)cc(C)c1C[C@H](N)C(=O)N1Cc2ccccc2CC1C(=O)NCCCCc1nc(O)c(CCCCNC(=O)C2Cc3ccccc3CN2C(=O)[C@@H](N)Cc2c(C)cc(O)cc2C)nc1C (stereo partly specified) | < 1% | 5 | > 10000 nM | 0.00871 nM | < 34% | 1.74 nM | 0.323 nM | > 10000 nM | – |
| Cc1cc(O)cc(C)c1C[C@H](N)C(=O)N1Cc2ccccc2CC1C(=O)NCCCCCCNC(=O)C1Cc2ccccc2CN1C(=O)[C@@H](N)Cc1c(C)cc(O)cc1C (stereo partly specified) | < 1% | – | > 10000 nM | 0.024 nM | – | 1.79 nM | 0.129 nM | – | – |
| Cc1cc(O)cc(C)c1C[C@@H](C(=O)N1Cc2ccccc2CC1C(=O)NCCCCCCNC(=O)C1Cc2ccccc2CN1C(=O)[C@H](Cc1c(C)cc(O)cc1C)N(C)C)N(C)C (stereo partly specified) | < 1% | 37 | > 10000 nM | 0.00525 nM | < 1% | 2.21 nM | 0.06 nM | > 10000 nM | 4.57 nM |
| Cc1cc(O)cc(C)c1C[C@H](N)C(=O)N1Cc2ccccc2CC1C(=O)NCCCCCCCCCCNC(=O)C1Cc2ccccc2CN1C(=O)[C@@H](N)Cc1c(C)cc(O)cc1C (stereo partly specified) | < 28% | 3 | > 10000 nM | 0.0107 nM | – | 4.86 nM | 1.53 nM | 5420 nM | – |
| Cc1cc(O)cc(C)c1C[C@H](N)C(=O)N1Cc2ccccc2CC1C(=O)NCc1nc(O)c(CNC(=O)C2Cc3ccccc3CN2C(=O)[C@@H](N)Cc2c(C)cc(O)cc2C)nc1C (stereo partly specified) | < 1% | 23 | > 10000 nM | 0.00603 nM | < 15% | 3.76 nM | 0.163 nM | > 10000 nM | – |
| Cc1cc(O)cc(C)c1C[C@H](N)C(=O)N1Cc2ccccc2CC1C(=O)NCCCc1nc(O)c(CCCNC(=O)C2Cc3ccccc3CN2C(=O)[C@@H](N)Cc2c(C)cc(O)cc2C)nc1C (stereo partly specified) | < 1% | 20 | > 10000 nM | 0.0275 nM | – | 3.08 nM | 0.155 nM | 7020 nM | – |
| Cc1cc(O)cc(C)c1C[C@@H](C(=O)N1Cc2ccccc2CC1C(=O)NCCCc1nc(O)c(CCCNC(=O)C2Cc3ccccc3CN2C(=O)[C@H](Cc2c(C)cc(O)cc2C)N(C)C)nc1C)N(C)C (stereo partly specified) | < 1% | 6 | > 10000 nM | 0.038 nM | < 1% | 1.68 nM | 0.287 nM | > 10000 nM | 19.5 nM |
| Cc1cc(O)cc(C)c1C[C@H](N)C(=O)N1Cc2ccccc2CC1C(=O)NCCCCNC(=O)C1Cc2ccccc2CN1C(=O)[C@@H](N)Cc1c(C)cc(O)cc1C (stereo partly specified) | < 1% | 46 | > 10000 nM | 0.0309 nM | < 16% | 5.72 nM | 0.124 nM | > 10000 nM | 102 nM |
| Cc1cc(O)cc(C)c1C[C@H](N)C(=O)N1Cc2ccccc2CC1C(=O)NCCCCc1nc(O)c(CCCNC(=O)C2Cc3ccccc3CN2C(=O)[C@@H](N)Cc2c(C)cc(O)cc2C)nc1C (stereo partly specified) | < 10% | 10 | – | – | < 1% | – | – | – | – |
| Cc1cc(O)cc(C)c1C[C@H](N)C(=O)N1Cc2ccccc2CC1C(=O)NCCCCc1nc(C)c(CCCNC(=O)C2Cc3ccccc3CN2C(=O)[C@@H](N)Cc2c(C)cc(O)cc2C)nc1O (stereo partly specified) | 22% | 25 | > 10000 nM | 0.0339 nM | < 9% | 2.28 nM | 0.092 nM | > 10000 nM | 112 nM |
| Cc1cc(O)cc(C)c1C[C@H](N)C(=O)N1Cc2ccccc2CC1C(=O)NCCc1nc(O)c(CCNC(=O)C2Cc3ccccc3CN2C(=O)[C@@H](N)Cc2c(C)cc(O)cc2C)nc1C (stereo partly specified) | < 1% | 30 | > 10000 nM | 0.0186 nM | < 27% | 2.83 nM | 0.095 nM | > 10000 nM | 166 nM |
| Cc1cc(O)cc(C)c1C[C@H](N)C(=O)N1Cc2ccccc2CC1C(=O)NCCCCc1nc(O)c(CCNC(=O)C2Cc3ccccc3CN2C(=O)[C@@H](N)Cc2c(C)cc(O)cc2C)nc1C (stereo partly specified) | < 1% | 13 | > 10000 nM | 0.0102 nM | < 44% | 1.37 nM | 0.107 nM | > 10000 nM | – |
| Cc1cc(O)cc(C)c1C[C@H](N)C(=O)N1Cc2ccccc2CC1C(=O)NCCCCc1[nH]c(=O)c(CCCNC(=O)C2Cc3ccccc3CN2C(=O)[C@@H](N)Cc2c(C)cc(O)cc2C)nc1C (stereo partly specified) | – | – | > 10000 nM | 0.0251 nM | – | 1.56 nM | 0.16 nM | > 10000 nM | – |
